Here are results for one molecule from US6638968B1, “Use of prodigiosin for treating diabetes mellitus” (Korea Research Institute of Bioscience and Biotechnology, priority 2000, dated 2003).

What all share (format): in vivo, mouse
For data set [1], the system named is NOD mice. The experiment in a line: Blood glucose of NOD mice (plasma, blood biochemical analyzer). The conditions noted are these: prodigiosin-injected NOD mice, 10 mg/kg intraperitoneally. The protocol: FIG. 3 illustrates decrease of the blood glucose by administration of prodigiosin. After we isolated plasma from NOD mouse, the blood glucose was measured with the blood biochemical analyzer (Cibacorning, USA).
Prodigiosin was intraperitoneally injected in 10 mg/kg from 8 weeks to 24 weeks of age, and the urine glucose was measured with uropaper (Eiken Chemical Co. Ltd., Japan) every week. In control group of NOD mice, not receiving prodigiosin, the urine glucose was first detected from 15 weeks of age, and at 24 weeks, 80% of the mice had the urine glucose detected (FIG. 2). […] Average blood glucose of non-prodigiosin-injected NOD mice was 500 mg/dl, which means diabetes mellitus crisis, and that of prodigiosin-injected NOD mice was 100 mg/dl, which means the normal condition (FIG. 3).

Data set [2] concerns NOD mice. The experiment in a line: Insulitis: lymphocyte infiltration into pancreatic ducts, hematoxylin/eosin staining. The conditions noted are these: prodigiosin-injected NOD mice. The protocol:
In insulin-dependent diabetes mellitus, insulitis may be induced by lymphocyte infiltration into pancreatic ducts and destruction of beta cells thereby. Macrophages and T cells are the major infiltrating lymphocytes, and these immune cells destroy beta cells. The pancreas from both the prodigiosin-injected and the non-injected NOD mice were preserved in formalin and to preparation. After the hematoxylin/eosin staining, the lymphocyte infiltration level was measured. 1, 2, and 3 point were respectively given to 25, 50, and 75% of insulitis progression, and the average value of insulitis progression was calculated (FIG. 4). The NOD mice, not receiving prodigiosin, had more than 2 point, or over 50% of infiltration, while the infiltration level of the prodigiosin-injected mice was about 1 point, or under 20% of infiltration.

The subject of data set [3] is NOD mice. The experiment in a line: Side effects of prodigiosin in NOD mice (body weight, mortality, pathological test of liver, kidney, lung). As to the method:
Because of diabetes, NOD mice have their weight decrease and come to die in 2 weeks after symptoms of diabetes.
FIG. 7 illustrates that the prodigiosin has no side effect.
In NOD mice receiving prodigiosin from 8 weeks to 24 weeks age, the negative effects of the prodigiosin were examined (FIG. 7). […] After their liver, kidney, and lung had been extracted from the prodigiosin-injected NOD mice, a pathological test was performed using the hematoxylinleosin staining.

On to `CCCCCC1=C/C(=C/c2[nH]c(-c3ccc[nH]3)cc2OC)N=C1C` [prodigiosin], for which the average blood glucose in data set [1] was 100 mg/dL. In addition, the lymphocyte infiltration entry in data set [2] (pancreas, hematoxylin/eosin staining) is on record as “under 20%”. Further, the “infiltration level (average insulitis progression score)” value in data set [2] (1, 2, 3 point = 25, 50, 75% insulitis progression) is “about 1 point”. Besides, in data set [3] (NOD mice receiving prodigiosin), the mortality entry is recorded as “any mice were not found dead”; the “toxicity to kidney, liver and lung” value was “no toxicity to kidney, liver and lung”. Besides, the body weight result in data set [3] (NOD mice receiving prodigiosin from 8 to 24 weeks of age) is “didn't decrease”. In data set [3] (NOD mice receiving prodigiosin from 8 to 24 weeks of age, hematoxylin/eosin staining), the “toxicity to kidney (glomerulus and nephric tubule, pathological test)” value is recorded as “no toxicity to kidney”.
